Experiments:
[1] = (§1) MMV: Anti-babesial activity assay. Parasite pRBCs at 1% parasitemia were cultivated in 100 ul with 96-well plates at 2.5% and 5% hematocrits. The parasites were cultivated in triplicate for 4 days without replacement of the medium for each concentration of the compound.; type: functional, Babesia bovis
[2] = as §1; type: functional, Babesia bigemina
[3] = as §1; type: functional, Babesia equi
[4] = as §1; type: functional, Babesia caballi

Row | SMILES | IC50 [1] | IC50 [2] | IC50 [3] | IC50 [4]
1 | Cc1sc(NC(=O)c2ccccc2)c(C(c2cccs2)N2CCN(c3ccccc3)CC2)c1C (centres undefined) | 1.05 µM | 0.68 µM | 10.7 µM | 14.7 µM
2 | O=C(Nc1ccc(F)c(Cl)c1)Nc1ccc(Cl)c(Cl)c1 | 3.53 µM | 3.39 µM | 3.39 µM | 3.81 µM
3 | CCN(CC)CCCNc1ccnc2cc3ccccc3cc12 | 2.7 µM | 1.3 µM | 15.9 µM | 25 µM
4 | O=c1cc(NC2CCN(CCCc3ccccc3)CC2)c2cc(Cl)ccc2o1 | 18.2 µM | 10 µM | 8.77 µM | 16.5 µM
5 | COc1cccc(C=Cc2nc(=O)c3ccccc3o2)c1OC | > 25 µM | 20 µM | 16.5 µM | 22.3 µM
6 | CCOc1ccc(-c2nonc2NC(=O)c2cccc(C)c2)cc1OCC | 19.9 µM | 13.1 µM | 18.5 µM | 17.5 µM
7 | CCOc1cc(Cl)c(C(C)NC(=O)c2ccccc2)cc1OCC (centres undefined) | > 25 µM | 4.19 µM | 10 µM | 12.4 µM
8 | Cc1cc(N(C)C)nc(Nc2ccc(NC(=O)Nc3ccccc3)cc2)n1 | 0.078 µM | 0.06 µM | 12.1 µM | 14.6 µM
9 | O=C(NC1CCN(Cc2ccccc2)CC1)c1cc(-c2ccncc2)nc2ccc(Cl)cc12 | 3.99 µM | 7.3 µM | 0.39 µM | 0.076 µM
10 | FC(F)(F)c1ccc(Nc2nnnc3ccccc23)cc1 | 25 µM | 7.18 µM | 10 µM | 13.4 µM
11 | c1ccc(CNc2nc(Nc3ccccc3)nc3ccccc23)cc1 | 4.06 µM | 10 µM | 2.12 µM | 3.73 µM
12 | CC(Oc1ccc(NC(=O)c2cccs2)cc1)C(=O)c1ccc(Cl)cc1 (centres undefined) | 0.1 µM | 0.081 µM | 13.3 µM | 0.29 µM
13 | CCOc1cccc(C(=O)Nc2ccc(-c3nc4ccccc4[nH]3)cc2)c1 | 17.2 µM | 5.64 µM | 10 µM | 0.075 µM
14 | COc1ccc(CCN2CCC(CN(C)Cc3cnn(-c4ccccc4)c3)CC2)cc1 | 0.87 µM | 4.29 µM | 0.62 µM | 2.45 µM
15 | O=C(Nc1ccc(C23CC4CC(CC(c5ccccc5)(C4)C2)C3)cc1)c1cccs1 | 8.1 µM | 10.4 µM | 15.2 µM | 16.8 µM
16 | CC(C)=CCN1CCC(C(=O)Nc2ccc(-c3nc4ccccc4[nH]3)cc2)CC1 | 5.5 µM | 1.04 µM | 0.051 µM | 17 µM
17 | Cc1ccc2nc(C)cc(Nc3cccc(C(F)(F)F)c3)c2c1 | 6.31 µM | 17.5 µM | 5.5 µM | 6.72 µM
18 | CCCc1c(C)nc2ccc(Br)cc2c1O | 16.5 µM | 11.9 µM | 13.3 µM | 0.1 µM
19 | CCC(c1ccccc1)c1nn2c(-c3cccs3)nnc2s1 (centres undefined) | 18.6 µM | 16.4 µM | 7.87 µM | 15.8 µM
20 | CCN(Cc1ccccc1)C1CCN(Cc2cc(Br)ccc2O)CC1 | 18.2 µM | 20.2 µM | 3.03 µM | 6.51 µM
21 | Cc1ccc(NC(=O)Nc2cccc(Cl)c2)cc1F | 11.1 µM | 10 µM | 14.3 µM | 0.074 µM
22 | O=C(Nc1cccc(C(F)(F)F)c1)c1cc(Cl)ccc1O | 0.82 µM | 3.71 µM | 5.1 µM | 5.21 µM
23 | Oc1ccc(C(=C(Cl)Cl)c2ccc(O)cc2)cc1 | 15.9 µM | > 25 µM | 13.8 µM | 21.1 µM

Row | SMILES | IC50 [1] | IC50 [2] | IC50 [3] | IC50 [4]
24 | COc1ccc(-c2nonc2NC(=O)c2cccc(Cl)c2)cc1OC | 10 µM | 8.2 µM | 16.6 µM | 11.5 µM
25 | CC(C)c1ccc(CNCC(O)c2ccccc2)cc1 (centres undefined) | 14.3 µM | > 25 µM | 10 µM | 12.4 µM
26 | Cc1sc(NC(=O)c2ccco2)c(C(c2cccnc2)N2CCC(Cc3ccccc3)CC2)c1C (centres undefined) | 0.086 µM | 0.073 µM | 17.5 µM | 0.45 µM
27 | CC1CCN(Cc2c(O)ccc3cc(-c4nc5ccccc5s4)c(=O)oc23)CC1 | 6.9 µM | 5.5 µM | 4.27 µM | 3.73 µM
28 | COc1ccc(C(=O)Nc2ccc3nc(N4CCCCC4)cc(C)c3c2)cc1OC | 14.3 µM | 0.46 µM | 6.99 µM | 0.51 µM
29 | CC(O)(c1ccc(Cl)cc1)C(CN1CCCCC1)c1ccccc1 (centres undefined) | 13.3 µM | 0.87 µM | 7.09 µM | 0.08 µM
30 | CC(C)(C)CC(C)(C)NCC(O)COc1ccc2c(c1)CCC2 (centres undefined) | 10 µM | 0.6 µM | 2.45 µM | 6.81 µM
31 | Cc1ccc(S(=O)(=O)c2c(COC(=O)c3cccc(C)c3)c(-c3ccccc3)nn2C)cc1 | 0.068 µM | 1 µM | 12.7 µM | 20.4 µM
32 | Cc1ccccc1OCCSc1nc2ccc(NC(=O)c3cccs3)cc2s1 | 7.81 µM | 5.09 µM | 22.3 µM | 5.51 µM
33 | Nc1ccc(-c2nc3cc(Cc4ccc5[nH]c(-c6ccc(N)cc6)nc5c4)ccc3[nH]2)cc1 | 0.086 µM | 9.04 µM | 0.8 µM | 1 µM
34 | Cc1ccc(-c2cc3c(SCC(=O)Nc4cc(C(F)(F)F)ccc4Cl)nccn3n2)cc1 | 21.6 µM | 16.6 µM | 5.89 µM | 13.5 µM
35 | CC(C)(C)c1ccc(C(=O)Nc2nc3ccccc3s2)cc1 | 7 µM | 12.9 µM | 10 µM | 1 µM
36 | COc1ccc(CN2CCCC(C(=O)c3ccc(C(F)(F)F)cc3)C2)c(O)c1 (centres undefined) | 0.21 µM | 19.8 µM | 3.86 µM | 16.5 µM
37 | COc1ccc(C(=O)Nc2ccc(Cl)cc2C(=O)Nc2ccncc2)cc1 | 3.53 µM | 0.65 µM | 10 µM | 6.4 µM
38 | CCOc1cc(Cl)c(C(C)NC(=O)c2cccc(OC)c2)cc1OCC (centres undefined) | 25 µM | 7.3 µM | 2.45 µM | 18.7 µM
39 | Oc1c(CN2CCN(c3ccccc3F)CC2)cc(Br)c2cccnc12 | 3.32 µM | 4.6 µM | 12.8 µM | 14.7 µM
40 | COc1cccc(C(=O)NC(c2ccc(C)cc2)c2cc(Cl)c3cccnc3c2O)c1 (centres undefined) | 4.68 µM | 1.4 µM | 3.73 µM | 16.1 µM
41 | CCOc1ccc(Nc2ccnc3cc(Cl)ccc23)cc1 | 0.056 µM | 0.068 µM | 15.9 µM | 10 µM
42 | Cc1ccc(OCCCCCCNCCO)c(C)c1 | 12.1 µM | 9.88 µM | 5.09 µM | 13.3 µM
43 | CCOC(=O)c1cnc2ccc(Cl)cc2c1NCCCN(C)C | 0.42 µM | 5.51 µM | 3.86 µM | 0.11 µM
44 | Cc1c(C)n(Cc2ccc(F)cc2)c2ccc(C(=O)NCc3ccco3)cc12 | 24.7 µM | 0.288 µM | 15.8 µM | 10 µM
45 | CCOC(=O)c1c[nH]c2c(CC)cccc2c1=O | 9.61 µM | 5.09 µM | 13.4 µM | 14.6 µM
46 | CCn1c2c(c(=N)c3c1CCC3)CCCC2 | 0.052 µM | 0.082 µM | 15 µM | 0.44 µM

Source: ChEMBL document CHEMBL3301464, “MMV Malaria Box anti-babesial screening”
